Data set [1] concerns Escherichia coli. The data set is described as follows: Antibacterial activity against Escherichia coli assessed as diameter of inhibition zone measured after 24 hrs by agar well diffusion method. Type of data set: functional.
The test system of data set [2] is Bacillus subtilis. Briefly: Antibacterial activity against Bacillus subtilis assessed as diameter of inhibition zone measured after 24 hrs by agar well diffusion method. Type of data set: functional.
Data set [3] has as its system PC-12. The data set is described as follows: Neuroprotective activity against H2O2-induced cytotoxicity in rat PC12 cells assessed as cell viability at EC50 pretreated for 24 hrs followed by H2O2 addition by MTT assay relative to control. The class given is functional.
Data set [4] concerns Escherichia coli. The data set is described as follows: Antibacterial activity against Escherichia coli after 24 hrs by UV-vis spectrophotometric method. The class given is functional.
The subject of data set [5] is Staphylococcus aureus. The data set is described as follows: Antibacterial activity against Staphylococcus aureus assessed as diameter of inhibition zone measured after 24 hrs by agar well diffusion method. The class given is functional.
Data set [6] relates to Pseudomonas aeruginosa. The data set is described as follows: Antibacterial activity against Pseudomonas aeruginosa assessed as diameter of inhibition zone measured after 24 hrs by agar well diffusion method. The class given is functional.
Data set [7] deals with Staphylococcus aureus. Briefly: Antibacterial activity against Staphylococcus aureus after 24 hrs by UV-vis spectrophotometric method. Type of data set: functional.
Data set [8] deals with PC-12. The data set is described as follows: Neuroprotective activity against H2O2-induced cytotoxicity in rat PC12 cells assessed as increase in cell viability pretreated for 24 hrs followed by H2O2 addition by MTT assay. The class given is functional, cell-based.
For data set [9], the system named is Bacillus subtilis. Briefly: Antibacterial activity against Bacillus subtilis after 24 hrs by UV-vis spectrophotometric method. The class given is functional.
A short description of data set [10]: Cytotoxicity against rat PC12 cells assessed as cell viability at CC50 after 24 hrs by MTT assay relative to control. The class given is cell-based, PC-12. The note with it: read-out: Activity.
Data set [11] in a line: Cytotoxicity against rat PC12 cells assessed as cell viability at MNTC after 24 hrs by MTT assay relative to control. Type of data set: cell-based, PC-12. The note with it: read-out: Activity.
Data set [12] in a line: Cytotoxicity against rat PC12 cells after 24 hrs by MTT assay. The class given is cell-based, PC-12. The note with it: for MNTC at 24 h: read-out: MNCC.
Data set [13] concerns Pseudomonas aeruginosa. Briefly: Antibacterial activity against Pseudomonas aeruginosa after 24 hrs by UV-vis spectrophotometric method. Type of data set: functional.

SMILES strings stand for the structures. ≈ marks a conversion by molar mass, not a printed value.

`COc1cccc(N2CCN(CC#CCOC(=O)c3sc4ncnc(N5CCCCC5)c4c3C)CC2)c1`: the “diameter of the inhibition zone (DIZ)” value amounted to 13 mm in the data set on Escherichia coli [1], 13 mm in the data set on Bacillus subtilis [2], 10 mm in the data set on Staphylococcus aureus [5] and 14 mm in the data set with Pseudomonas aeruginosa [6]. Also, the Activity was 75.08% with PC-12 [3] and “Dose-dependent effect” with PC-12 [8]. The MIC was found to be 0.0384 µg/mL (≈ 0.0739 µM) in the data set with Escherichia coli [4], 0.0244 µg/mL (≈ 0.047 µM) in the data set on Staphylococcus aureus [7], 0.521 µg/mL (≈ 1 µM) with Bacillus subtilis [9] and 0.0842 µg/mL (≈ 0.162 µM) with Pseudomonas aeruginosa [13]. The EC50 with PC-12 [8] was found to be 40.4 µg/mL (≈ 77.8 µM). Moreover, the viability at 24 h came to 51% in data set [10] and 98.2% in [11]. For the same compound, the CC50 at 24 h in data set [12] amounted to 144 µg/mL (≈ 278 µM). The MNTC at 24 h in data set [12] was 96 µg/mL.
Turning to `Cc1ccc(-c2nnc(-c3sc4ncnc(N5CCOCC5)c4c3C)o2)cc1`, the “diameter of the inhibition zone (DIZ)” value in the data set on Escherichia coli [1] is reported as 18 mm; with Bacillus subtilis [2] it was 15 mm; with Staphylococcus aureus [5], 18 mm; in the data set on Pseudomonas aeruginosa [6], 14 mm. For the same compound, the results for the Activity in the data set with PC-12 [3] and in the data set on PC-12 [8] were 74.2% and “Dose-dependent effect”, respectively. In addition, the MIC in the data set on Escherichia coli [4] was 0.0132 µg/mL (≈ 0.0335 µM); in the data set with Staphylococcus aureus [7], 0.0546 µg/mL (≈ 0.139 µM); against Bacillus subtilis [9], 0.0464 µg/mL (≈ 0.118 µM); against Pseudomonas aeruginosa [13], 0.0442 µg/mL (≈ 0.112 µM). The EC50 with PC-12 [8] was 26.6 µg/mL (≈ 67.6 µM). The viability at 24 h in data set [10] was determined as 49.2%; in data set [11], 97.6%. Moreover, the CC50 at 24 h in data set [12] amounted to 86.1 µg/mL (≈ 219 µM). Besides, the MNTC at 24 h in data set [12] came out at 68 µg/mL.
For `Cc1c(-c2nnc(-c3ccc(Cl)cc3)o2)sc2ncnc(N3CCOCC3)c12`, the “diameter of the inhibition zone (DIZ)” value in the data set on Escherichia coli [1] is 13 mm; in the data set on Bacillus subtilis [2] it was 18 mm; with Staphylococcus aureus [5], 13 mm; in the data set on Pseudomonas aeruginosa [6], 18 mm. In addition, the Activity with PC-12 [3] was 77.18%; in the data set with PC-12 [8], “Dose-dependent effect”. Also, the MIC against Escherichia coli [4] amounted to 0.0172 µg/mL (≈ 0.0416 µM); with Staphylococcus aureus [7], 0.0136 µg/mL (≈ 0.0329 µM); in the data set on Bacillus subtilis [9], 0.0144 µg/mL (≈ 0.0348 µM); in the data set on Pseudomonas aeruginosa [13] it was 0.0144 µg/mL (≈ 0.0348 µM). For the same compound, the EC50 with PC-12 [8] amounted to 28.2 µg/mL (≈ 68 µM). In addition, the viability at 24 h in data set [10] turned out to be 51.1%; in data set [11], 98.3%. In data set [12], half-maximal cytotoxicity (CC50 at 24 h) was put at 168 µg/mL (≈ 406 µM). The MNTC at 24 h in data set [12] came to 120 µg/mL.
As to `Cc1ccc(-c2nnc(-c3sc4ncnc(N5CCCCC5)c4c3C)o2)cc1`, the “diameter of the inhibition zone (DIZ)” value with Escherichia coli [1] is 11 mm; in the data set with Bacillus subtilis [2], 17 mm; in the data set on Staphylococcus aureus [5] it was 14 mm; in the data set on Pseudomonas aeruginosa [6] it was 12 mm. The Activity in the data set on PC-12 [3] was 74.98%; in the data set with PC-12 [8] it was “Dose-dependent effect”. Further, the MIC in the data set on Escherichia coli [4] is 0.0138 µg/mL (≈ 0.0352 µM); with Staphylococcus aureus [7], 0.0404 µg/mL (≈ 0.103 µM); in the data set with Bacillus subtilis [9], 0.0142 µg/mL (≈ 0.0363 µM); against Pseudomonas aeruginosa [13], 0.0201 µg/mL (≈ 0.0513 µM). Also, the EC50 with PC-12 [8] was determined as 28.2 µg/mL (≈ 72 µM). Moreover, the viability at 24 h was found to be 49.2% in data set [10] and 99.5% in data set [11]. The compound also came in with a CC50 at 24 h in data set [12] of 161 µg/mL (≈ 411 µM). In [12], the MNTC at 24 h stood at 110 µg/mL.
For the compound `Cc1ccc(C#N)c(N2CCN(CC#CCOC(=O)c3sc4ncnc(N5CCCCC5)c4c3C)CC2)c1`, the “diameter of the inhibition zone (DIZ)” value with Escherichia coli [1] worked out at 15 mm; in the data set on Bacillus subtilis [2] it was 13 mm; with Staphylococcus aureus [5] it was 13 mm; in the data set on Pseudomonas aeruginosa [6] it was 14 mm. The Activity in the data set on PC-12 [3] was 76.04%; with PC-12 [8], “Dose-dependent effect”. Also, the MIC in the data set on Escherichia coli [4] stood at 0.0144 µg/mL (≈ 0.0272 µM); in the data set on Staphylococcus aureus [7] it was 0.122 µg/mL (≈ 0.231 µM); against Bacillus subtilis [9], 0.0312 µg/mL (≈ 0.059 µM); in the data set with Pseudomonas aeruginosa [13], 0.0624 µg/mL (≈ 0.118 µM). Further, the EC50 in the data set with PC-12 [8] stood at 38.2 µg/mL (≈ 72.2 µM). Also, the viability at 24 h in data set [10] is 49%; in [11], 98.2%. This compound also returned a CC50 at 24 h in data set [12] of 114 µg/mL (≈ 216 µM). Moreover, in [12], the MNTC at 24 h was 96 µg/mL.
On to `Cc1c(-c2nnc(-c3ccc([N+](=O)[O-])cc3)o2)sc2ncnc(N3CCOCC3)c12`, for which the “diameter of the inhibition zone (DIZ)” value in the data set with Escherichia coli [1] is listed as 16 mm; in the data set on Bacillus subtilis [2], 13 mm; in the data set with Staphylococcus aureus [5] it was 16 mm; in the data set with Pseudomonas aeruginosa [6] it was 16 mm. For the same compound, the Activity in the data set on PC-12 [3] was 75.11%; in the data set with PC-12 [8] it was “Dose-dependent effect”. Moreover, the MIC was 0.0382 µg/mL (≈ 0.09 µM) in the data set on Escherichia coli [4], 0.046 µg/mL (≈ 0.108 µM) against Staphylococcus aureus [7], 0.0381 µg/mL (≈ 0.0898 µM) with Bacillus subtilis [9] and 0.0266 µg/mL (≈ 0.0627 µM) against Pseudomonas aeruginosa [13]. The EC50 in the data set with PC-12 [8] turned out to be 16.2 µg/mL (≈ 38.1 µM). The figures for the viability at 24 h in [10] and in data set [11] were 49.2% and 99.2%, respectively. In data set [12], it took 94.2 µg/mL (≈ 222 µM) to reach half-maximal cytotoxicity (CC50 at 24 h). For the same compound, the MNTC at 24 h in data set [12] is 80 µg/mL.
Turning to `COc1cccc(N2CCN(CC#CCOC(=O)c3sc4ncnc(N5CCOCC5)c4c3C)CC2)c1`, the “diameter of the inhibition zone (DIZ)” value came to 14 mm with Escherichia coli [1], 16 mm in the data set on Bacillus subtilis [2], 12 mm in the data set on Staphylococcus aureus [5] and 14 mm in the data set with Pseudomonas aeruginosa [6]. The Activity is 76.78% in the data set on PC-12 [3] and “Dose-dependent effect” with PC-12 [8]. Further, the MIC with Escherichia coli [4] was 0.501 µg/mL (≈ 0.96 µM); in the data set with Staphylococcus aureus [7] it was 0.0311 µg/mL (≈ 0.0596 µM); in the data set with Bacillus subtilis [9], 0.012 µg/mL (≈ 0.023 µM); against Pseudomonas aeruginosa [13], 0.0124 µg/mL (≈ 0.0238 µM). Further, the EC50 with PC-12 [8] was found to be 38.4 µg/mL (≈ 73.6 µM). Also, the figures for the viability at 24 h in data set [10] and in [11] were 50% and 98.1%, respectively. Besides, in data set [12], the CC50 at 24 h stood at 161 µg/mL (≈ 308 µM). Further, the MNTC at 24 h in [12] was 114 µg/mL.
For `Cc1c(C(=O)OCC#CCN2CCN(c3ccc(Br)cc3C#N)CC2)sc2ncnc(N3CCCCC3)c12`, the “diameter of the inhibition zone (DIZ)” value in the data set on Escherichia coli [1] stood at 14 mm; in the data set on Bacillus subtilis [2], 16 mm; with Staphylococcus aureus [5], 13 mm; in the data set with Pseudomonas aeruginosa [6] it was 15 mm. For the same compound, the Activity with PC-12 [3] is 76.18%; in the data set on PC-12 [8], “Dose-dependent effect”. The MIC was determined as 0.0244 µg/mL (≈ 0.0411 µM) in the data set on Escherichia coli [4], 0.0124 µg/mL (≈ 0.0209 µM) against Staphylococcus aureus [7], 0.0186 µg/mL (≈ 0.0313 µM) with Bacillus subtilis [9] and 0.0112 µg/mL (≈ 0.0189 µM) in the data set on Pseudomonas aeruginosa [13]. For the same compound, the EC50 in the data set with PC-12 [8] worked out at 40.9 µg/mL (≈ 68.8 µM). In addition, the results for the viability at 24 h in [10] and in [11] were 51.2% and 99.1%, respectively. Also, the CC50 at 24 h in data set [12] stood at 136 µg/mL (≈ 230 µM). Also, the MNTC at 24 h in data set [12] worked out at 96 µg/mL.
